{
  "source": "patent US8394629B2",
  "about": "“Use of vinca alkaloids and salts thereof” (Keio University, priority 2003, dated 2013)",
  "key": {"[1]": {"test_system": "pancreatic acinar carcinoma AR42J-B13 cells", "assay": "Morphological change and trypan blue exclusion test of AR42J-B13 cells", "type": "cell-based, rat", "procedure": "(§1) DMEM was sterilized by filtration after its pH was adjusted to 7.4 in the presence of 20 mM HEPES-NaOH. AR42J-B13 cells (endowed by Dr. Itaru Kojima, Institute for Cellular and Molecular Regulation, Gunma University) a highly sensitive subclone of AR42J, were cultured at 37° C. in a 5% CO2 incubator with 20 ml of culture medium DMEM supplemented with 100 mg/l kanamycin, 0.6 g/l glutamine, 100 unit/ml penicillin G, 5 mM NaHCO3, and 10% FBS. To prevent transformation due to a high density of the cells and to retain differentiation ability of the cells, the cells were transferred every 2 to 3 days to maintain 2.5% to 5% of confluency. The cell transfer was performed as follows: After the medium was removed, the cells were washed twice in PBS^− (Ca^2+, Mg^2+-free PBS; 8 g/l, NaCl, 0.2 g/l KCl, 0.916 g/Na2HPO4, 0.2 g/l KH2PO4). Subsequently, the cells were detached using 2 ml of trypsin-EDTA solution, and then trypsin was inactivated by addition of 8 ml of the medium. […]\nCells that had been prepared at a density of 4×10^5 cells/ml were plated at 500 μl per well on 24-well plates, followed by incubation at 37° C. in a 5% CO2 incubator. […] Further, the photograph was enlarged 2.5 times and a morphological change was defined as having occurred when the full length of a cell in the diameter became 1.5 times; thus, the rates of morphological changes were determined."}, "[2]": {"test_system": "pancreatic acinar carcinoma AR42J-B13 cells", "assay": "ELISA quantification of insulin secretion of differentiated AR42J-B13 cells", "type": "cell-based, rat", "conditions": "secretion below the detection level"}, "[3]": {"test_system": "neonatal porcine pancreatic cells", "assay": "Immunostaining of insulin-producing cells in cultured neonatal porcine pancreatic cells (Experiment example I)", "type": "cell-based, pig", "conditions": "three weeks culture; nicotinamide 10 mM, HGF 10 ng/ml, conophylline 0.1 μg/ml; FIG. 2", "procedure": "Neonatal pigs within 72 hours of birth were obtained from the (Takayama) pig farm. The whole pancreas (ventral and dorsal pancreas) was removed under general anesthesia immediately after animals were brought to the operating room. After elimination of connective tissue covering the removed pancreas and blood adhering to it, the pancreas was transferred to a 10 ml beaker and dissected into small pieces with ophthalmic scissors. The dissected pieces were transferred to a 100 ml conical flask, to which 50 to 60 ml of phosphate buffered saline (PBS) was added. After a 3 min rotation at 110 rpm on a low speed stirrer, the mixture was allowed to stand still and the supernatant was discarded. Then, 40 mL of phosphate buffered saline containing Liberase PI (Roche) at a concentration of 2.5 mg/ml was added. After an 8 min rotation at 110 rpm on a low speed stirrer, the mixture was allowed to stand still and the supernatant containing the cells was collected. The operation was repeated 5 times. The supernatant collected was centrifuged at 1200 rpm for 5 min. to collect cells. The cells collected in the centrifugal sedimentum was suspended in 25 to 50 ml of PBS, 25 ml of cell suspension was overlaid gently on 10 ml of Histopaque 1077 (Sigma), followed by centrifugation at 1800 rpm for 10 min. […]"}, "[4]": {"test_system": "pancreatic acinar carcinoma AR42 J-B13 cells", "conditions": "known from prior report; cited from earlier work"}, "[5]": {"test_system": "streptozotocin-administered rats", "assay": "Blood glucose levels of streptozotocin-administered rats", "type": "in vivo, Wistar rats", "conditions": "5 μg/g BW subcutaneously for seven consecutive days from day 1 after streptozotocin; versus control; P<0.05 / P<0.01; FIG. 4", "procedure": "Ten 1-day old Wistar rats (purchased from Japan SLC, Shizuoka, Japan) were intraperitoneally injected with streptozotocin (purchased from Wako Pure Chemical Industries, Ltd., dissolved in […] citrate buffer (pH 4.5)) at 85 μg/g BW per rat. Streptozotocin decreases insulin production by destroying pancreatic β cells, thereby inducing diabetes. The day of streptozotocin injection was defined as day 0, Starting from the next day (day 1), five rats were injected subcutaneously with a solution (ethanol) of conophylline at 5 μg/g BW for seven consecutive days and their random blood glucose levels were measured daily. Five rats in the control group received the same volume of solvent (Control)."}, "[6]": {"test_system": "pancreatic acinar carcinoma AR42J-B13 cells", "assay": "Insulin immunofluorescence of AR42J-B13 cells", "type": "cell-based, rat", "conditions": "after 72 hours; conophylline 0.1 μg/ml, HGF 100 pM, activin A 2 nM", "procedure": "as §1, with “medium. Subsequently, the cell were sedimented by centrifugation at 1000 rpm for 5 min, trypsin was removed, 10 ml of fresh medium was added, and transferred to be 2.5% to 5% of confluency. Cells were cryopreserved under the condition of 7.5% dimethyl sulfoxide (DMSO).” for “medium.”"}, "porcine pancreatic cells": {"test_system": "porcine pancreatic cells", "assay": "Induction of insulin production in porcine pancreatic cells (statement in the description)", "type": "cell-based, pig", "conditions": "no conditions given"}},
  "data": [
    {"molecule": "CC[C@@]12C=CCN3CC[C@]4(C(=C(C(=O)OC)C1)Nc1cc5c(cc14)[C@H]1[C@@H](O5)[C@H](O)[C@]4(CC)CC(C(=O)OC)=C5Nc6c(cc(O)c(OC)c6OC)[C@@]56CCN1[C@H]46)[C@H]32", "note": "(stereo in doubt) [conophyllidine]", "values": [
      {"measurement": "morphological changes involved in insulin production", "setting": "[1]; AR42J cells, no concentration given", "value": "confirmed to induce morphological changes"}
    ]},
    {"molecule": "CC[C@@]12CC(C(=O)OC)=C3Nc4cc5c(cc4[C@@]34CCN(C[C@H]3O[C@H]31)[C@@H]24)[C@@H]1[C@H](O5)[C@@H](O)[C@@]2(CC)CC(C(=O)OC)=C3Nc4c(cc(O)c(OC)c4OC)[C@@]34CCN1[C@@H]24", "note": "[conophylline]", "values": [
      {"measurement": "insulin secretion out of cells", "setting": "[2]", "value": "incapable of inducing insulin secretion out of cells"},
      {"measurement": "insulin-producing cells colored in red (immunostaining)", "setting": "[3]", "value": "only a few insulin-producing cells"},
      {"measurement": "insulin production of AR42J cells", "setting": "[4]", "value": "induces insulin production"},
      {"measurement": "insulin release into culture medium", "setting": "[4]", "value": "did not release insulin into culture medium"},
      {"measurement": "process outgrowth (morphological change)", "setting": "[1]; conophylline 0.1 to 0.3 μg/ml, alone or with HGF", "value": "concentration-dependently induced"},
      {"measurement": "blood glucose levels", "setting": "[5]", "value": "apparent decrease in blood glucose levels"}
    ]},
    {"molecule": "NC(=O)c1cccnc1", "note": "[nicotinamide, reference compound]", "values": [
      {"measurement": "insulin-producing cells colored in red (immunostaining)", "setting": "[3]", "value": "only a few insulin-producing cells"}
    ]},
    {"molecule": "HGF: Hepatocyte growth factor (HGF), Sigma", "values": [
      {"measurement": "red coloration of insulin in cells (immunofluorescence)", "setting": "[6]", "value": "no red coloration indicating insulin was observed"}
    ]},
    {"molecule": "Activin: activin A, which belongs to the TGF-β superfamily (protein, UniProt P08476 311-426, looked up) Inhibin beta A chain: GLECDGKVNICCKKQFFVSFKDIGWNDWIIAPSGYHANYCEGECPSHIAGTSGSSLSFHSTVINHYRMRGHSPFANLKSCCVPTKLRPMSMLYYDDGQNIIKKDIQNMIVEECGCS", "values": [
      {"measurement": "inducing insulin production of porcine pancreatic cells", "setting": "porcine pancreatic cells", "value": "does not exhibit the effect"},
      {"measurement": "insulin production of AR42J cells", "setting": "[4]", "value": "capable of inducing AR42J cells to produce insulin"}
    ]}
  ]
}
